This passage reports GI50 and TGI results from PubChem BioAssay (NCI).

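Cells were grown in 96-well plates and exposed to each compound for 48 hours at five concentrations; endpoints were interpolated linearly between bracketing concentrations, or set to the highest concentration if not reached. GI50 is the concentration that inhibits growth by half. TGI denotes the concentration required for complete inhibition of growth.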

Some test systems named below: KM12 colon; HOP-62 NSCLC; TK-10 renal; MALME-3M melanoma; M14 melanoma; IGROV1 ovarian; EKVX NSCLC; ACHN renal.
Assay in all cases: growth of human tumour cells (NCI), 48 h

For `C#CCOc1cccc(-c2ncnc3cc(NC(=O)CCl)ccc23)c1`, the GI50 in the assay with KM12 colon was 0.622 µM; in the assay on HOP-62 NSCLC, 2.36 µM; in the assay on TK-10 renal, 1.26 µM; in the assay with MALME-3M melanoma, 1.28 µM; in the assay on M14 melanoma, 0.66 µM; in the assay with IGROV1 ovarian, 0.0612 µM. The GI50 in the assay on EKVX NSCLC is 2.31 µM; in the assay on ACHN renal, 0.419 µM. The TGI with KM12 colon amounted to 3.2 µM; in the assay with HOP-62 NSCLC, 7.18 µM; with TK-10 renal it was 2.81 µM; in the assay on MALME-3M melanoma it was 3.59 µM; with M14 melanoma, 2.64 µM; in the assay on IGROV1 ovarian it was 1.92 µM. The TGI came to 7.64 µM with EKVX NSCLC and 2.06 µM in the assay on ACHN renal.

On to `COc1cccc(-c2nc3sccn3c2-c2ccnc(NCCCNS(=O)(=O)c3cccc(F)c3)c2)c1`, for which the GI50 was 3.17 µM with KM12 colon; 2.83 µM with HOP-62 NSCLC; 3.8 µM in the assay with TK-10 renal; 2.23 µM with MALME-3M melanoma; 2.35 µM with M14 melanoma; 2.39 µM with IGROV1 ovarian. Moreover, the GI50 with EKVX NSCLC was 2.99 µM; in the assay on ACHN renal, 2.22 µM. In addition, the TGI in the assay on KM12 colon was determined as 27.3 µM; with HOP-62 NSCLC, 29.1 µM; in the assay on TK-10 renal, 31.9 µM; in the assay with MALME-3M melanoma, 7.24 µM; in the assay on M14 melanoma, 6.05 µM; in the assay on IGROV1 ovarian, 9.77 µM. Moreover, the TGI with EKVX NSCLC was > 100 µM; in the assay on ACHN renal it was 10.6 µM.

Turning to `Cc1cc(=O)oc2cc(OC(=O)N(C)C)c(Cl)cc12`, the TGI was > 100 µM in the assay on KM12 colon; 79 µM with HOP-62 NSCLC; > 100 µM in the assay with TK-10 renal; > 100 µM in the assay on MALME-3M melanoma; > 100 µM in the assay with M14 melanoma; > 100 µM in the assay with IGROV1 ovarian. For the same molecule, the TGI in the assay on EKVX NSCLC and with ACHN renal was > 100 µM in each case.

As to `COc1cc(OC)cc(N(CCNC(C)C)c2ccc3ncc(-c4cnn(C)c4)nc3c2)c1`, the GI50 in the assay with KM12 colon is 7.53 µM; with HOP-62 NSCLC, 4.63 µM; in the assay on TK-10 renal, 2.81 µM; in the assay with MALME-3M melanoma, 6.48 µM; in the assay on M14 melanoma, 4.45 µM; in the assay on IGROV1 ovarian it was 3.02 µM. The GI50 with EKVX NSCLC was 13.1 µM; in the assay with ACHN renal, 2.18 µM. The TGI stood at 21.8 µM with KM12 colon; 20 µM with HOP-62 NSCLC; 12.1 µM in the assay with TK-10 renal; 21.5 µM in the assay on MALME-3M melanoma; 18.6 µM in the assay with M14 melanoma; 11.1 µM in the assay on IGROV1 ovarian. Moreover, the figures for the TGI in the assay with EKVX NSCLC and in the assay on ACHN renal were 27 µM and 8.12 µM, respectively.

Turning to `C=C(c1ccc2nc(NC(=O)OC)[nH]c2c1)c1cccs1`, the TGI in the assay with KM12 colon is > 100 µM; with HOP-62 NSCLC, > 77.4 µM; with TK-10 renal, > 100 µM; in the assay with MALME-3M melanoma, > 100 µM; in the assay on M14 melanoma it was > 100 µM; in the assay with IGROV1 ovarian it was > 100 µM. Besides, the TGI in the assay with EKVX NSCLC was > 100 µM; with ACHN renal, 7.47 µM.

On to `S=C(Nc1ccc(Br)cc1)Nc1ccc(Br)cc1`, for which the GI50 in the assay with KM12 colon was 3.63 µM; in the assay with HOP-62 NSCLC, 83.9 µM; in the assay on TK-10 renal it was 5.38 µM; in the assay with MALME-3M melanoma, 11.7 µM; with M14 melanoma it was 8.3 µM; in the assay on IGROV1 ovarian it was 7.41 µM. Moreover, the GI50 in the assay on EKVX NSCLC was 3.72 µM; in the assay on ACHN renal, 4.25 µM. In addition, the TGI with KM12 colon, in the assay with HOP-62 NSCLC, in the assay with TK-10 renal, in the assay on MALME-3M melanoma, in the assay with M14 melanoma and with IGROV1 ovarian was > 100 µM in each case. Moreover, the TGI in the assay on EKVX NSCLC and in the assay with ACHN renal was > 100 µM each time.

Turning to `COC(=O)CCc1c[nH]c2ccc(N(CCCl)CCCl)cc12`, the GI50 in the assay with KM12 colon is 10.6 µM; in the assay with HOP-62 NSCLC it was 1.04 µM; in the assay with TK-10 renal, 4.82 µM; with MALME-3M melanoma, 5.95 µM; in the assay on M14 melanoma it was 1.73 µM; in the assay on IGROV1 ovarian it was 6.45 µM. In addition, the GI50 with EKVX NSCLC was 21.8 µM; in the assay on ACHN renal it was 0.383 µM. The TGI in the assay with KM12 colon is 36.1 µM; in the assay on HOP-62 NSCLC, 16.5 µM; with TK-10 renal it was 66 µM; with MALME-3M melanoma, 30.1 µM; with M14 melanoma, 11.5 µM; in the assay with IGROV1 ovarian, > 57.7 µM. In the assay with EKVX NSCLC, the TGI was > 77.7 µM.

Regarding `COc1ccc2c(C)cc(N/N=C/c3ccc(OC)c4ccccc34)nc2c1`, the TGI in the assay with KM12 colon stood at 29.6 µM; in the assay on HOP-62 NSCLC, 34.4 µM; in the assay on TK-10 renal it was 31.8 µM; with MALME-3M melanoma, 36.3 µM; with M14 melanoma it was 31.9 µM; in the assay on IGROV1 ovarian, 29.3 µM. Besides, the TGI came to 35.1 µM in the assay on EKVX NSCLC and 15.8 µM with ACHN renal.

Take `Nc1ccccc1C(=O)CC1OC(=O)c2ccccc21` (stereo unspecified): the TGI in the assay with KM12 colon, in the assay on HOP-62 NSCLC, with TK-10 renal, in the assay with MALME-3M melanoma, in the assay on M14 melanoma and in the assay with IGROV1 ovarian was > 100 µM in each case. Moreover, the TGI in the assay with EKVX NSCLC and in the assay on ACHN renal was > 100 µM each time.
